From patent US20240262804A1, “NITROGEN-CONTAINING HETEROCYCLIC KETONES, PREPARATION METHODS AND MEDICINAL USES THEREOF” (Hansoh Bio LLC, priority 2021, published 2024)

Tests used:
[1] = Pharmacokinetic profiles in male SD rats (IV and PO); assay type: in vivo, rat; settings: IV 1 mg/kg, PO 5 mg/kg, route for this parameter not given; for clearance / half-life / Vd: rat, plasma; for Vd: read-out: VSS
Experimental: Pharmacokinetic profile of compounds were determined by IV (1 mg/Kg) and PO (5 mg/Kg) administrations in male SD rats. Compounds were administrated with free base and formulated in 5% DMAC+25% PEG-400+70%(30% 2-HP-β-CD in water). The compounds were dosed at 1 mg/kg for intravenous and 5 mg/kg oral administration. Blood samples were collected at 0, 0.083, 0.25, 0.5, 1, 2, 4, 8 and 24 hours post dose, serial bleeding for plasma for the IV group. Blood samples were collected at 0, 0.25, 0.5, 1, 2, 4, 6, 8 and 24 hours post dose, serial bleeding for the PO group. Approximately 150 μL whole blood/time point were collected in K2EDTA tube via jugular vein. Blood sample was put on ice and centrifuged at 2000 g for 5 min to obtain plasma sample within 15 minutes. PK parameters were estimated by non-compartmental model using WinNonlin 8.2.

bovine cardiac myosin = bovine cardiac myosin (Bos taurus (Bovine), UniProt Q9BE39); assay: Myosin inhibitory potency: PK/LDH-coupled ATPase assay on bovine skinned cardiac myofibrils; assay type: biochemical; settings: pCa=6.25, 50 μM ATP, 25° C., read-out: myosin inhibition activity IC50
Outline: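 Bovine left-ventricle skinned myofibrils (1 mg/mL) in PM12 buffer pH 6.8 at pCa 6.25, 50 μM ATP, PK/LDH-coupled NADH depletion read at 340 nm, 25 °C.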

Sequence of bovine cardiac myosin (Q9BE39 whole entry): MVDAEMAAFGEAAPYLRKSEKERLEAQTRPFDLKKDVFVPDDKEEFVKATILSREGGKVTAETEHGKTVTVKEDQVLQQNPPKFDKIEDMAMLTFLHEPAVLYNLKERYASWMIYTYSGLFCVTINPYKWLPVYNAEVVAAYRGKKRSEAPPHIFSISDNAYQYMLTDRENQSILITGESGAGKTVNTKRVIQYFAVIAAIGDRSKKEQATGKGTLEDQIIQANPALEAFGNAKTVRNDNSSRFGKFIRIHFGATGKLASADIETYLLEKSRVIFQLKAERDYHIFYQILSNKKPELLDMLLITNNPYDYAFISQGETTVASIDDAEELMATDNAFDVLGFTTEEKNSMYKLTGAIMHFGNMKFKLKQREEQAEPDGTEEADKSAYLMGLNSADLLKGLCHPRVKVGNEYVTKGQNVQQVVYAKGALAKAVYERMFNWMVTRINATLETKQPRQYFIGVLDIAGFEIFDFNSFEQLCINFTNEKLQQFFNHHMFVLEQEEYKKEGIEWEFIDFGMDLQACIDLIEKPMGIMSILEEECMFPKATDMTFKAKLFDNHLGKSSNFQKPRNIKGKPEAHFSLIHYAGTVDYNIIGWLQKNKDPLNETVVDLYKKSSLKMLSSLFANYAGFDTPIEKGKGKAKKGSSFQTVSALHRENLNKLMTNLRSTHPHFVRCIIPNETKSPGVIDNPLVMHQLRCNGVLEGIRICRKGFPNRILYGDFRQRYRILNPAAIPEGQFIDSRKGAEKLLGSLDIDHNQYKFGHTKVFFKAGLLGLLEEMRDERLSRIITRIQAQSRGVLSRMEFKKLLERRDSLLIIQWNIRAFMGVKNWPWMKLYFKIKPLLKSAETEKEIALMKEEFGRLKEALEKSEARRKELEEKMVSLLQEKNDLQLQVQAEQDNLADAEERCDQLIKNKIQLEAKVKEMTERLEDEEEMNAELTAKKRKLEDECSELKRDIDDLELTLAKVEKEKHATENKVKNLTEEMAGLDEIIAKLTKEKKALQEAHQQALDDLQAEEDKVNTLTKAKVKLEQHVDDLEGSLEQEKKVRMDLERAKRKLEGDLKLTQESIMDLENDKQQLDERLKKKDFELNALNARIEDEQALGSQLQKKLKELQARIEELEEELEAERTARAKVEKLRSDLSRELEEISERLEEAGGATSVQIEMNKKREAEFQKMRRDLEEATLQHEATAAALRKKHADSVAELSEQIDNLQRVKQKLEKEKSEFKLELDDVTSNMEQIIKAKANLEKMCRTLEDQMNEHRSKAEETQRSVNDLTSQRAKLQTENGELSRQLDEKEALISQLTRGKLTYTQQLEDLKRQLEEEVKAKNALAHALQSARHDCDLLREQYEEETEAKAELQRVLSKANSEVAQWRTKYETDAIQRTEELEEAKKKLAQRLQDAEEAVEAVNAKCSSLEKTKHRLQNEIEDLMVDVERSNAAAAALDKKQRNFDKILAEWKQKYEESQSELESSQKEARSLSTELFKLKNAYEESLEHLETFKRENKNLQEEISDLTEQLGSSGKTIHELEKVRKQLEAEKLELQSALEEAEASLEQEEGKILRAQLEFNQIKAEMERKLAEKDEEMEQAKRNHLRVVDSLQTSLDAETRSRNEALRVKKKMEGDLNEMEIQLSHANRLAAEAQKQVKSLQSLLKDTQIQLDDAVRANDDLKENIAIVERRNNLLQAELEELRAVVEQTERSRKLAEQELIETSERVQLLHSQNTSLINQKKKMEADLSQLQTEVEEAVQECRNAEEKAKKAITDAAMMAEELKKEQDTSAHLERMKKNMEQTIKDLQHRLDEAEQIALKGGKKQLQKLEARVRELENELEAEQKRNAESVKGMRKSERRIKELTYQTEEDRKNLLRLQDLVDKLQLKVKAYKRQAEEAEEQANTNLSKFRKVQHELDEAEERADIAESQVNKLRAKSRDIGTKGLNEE
Sequence of bovine cardiac myosin (P85100 whole entry partner): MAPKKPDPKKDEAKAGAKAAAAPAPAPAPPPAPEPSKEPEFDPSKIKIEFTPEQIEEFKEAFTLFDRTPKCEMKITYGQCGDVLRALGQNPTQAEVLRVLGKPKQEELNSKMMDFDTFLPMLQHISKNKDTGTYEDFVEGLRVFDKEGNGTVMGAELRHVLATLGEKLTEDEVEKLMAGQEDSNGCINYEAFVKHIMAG
Sequence of bovine cardiac myosin (Q3SZE5 whole entry partner): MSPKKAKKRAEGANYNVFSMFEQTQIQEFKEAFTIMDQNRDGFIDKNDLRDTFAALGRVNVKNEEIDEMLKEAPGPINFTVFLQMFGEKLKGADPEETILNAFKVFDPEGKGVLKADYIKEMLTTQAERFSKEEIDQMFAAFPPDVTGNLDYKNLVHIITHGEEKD

| Compound | IC50 (bovine cardiac myosin) [nM] | other results |
| --- | --- | --- |
| C[C@H](Nc1nc(=O)n(C2CCOCC2)c(=O)[nH]1)c1ccc(Cl)c(Cl)c1 [Example 165] | 200 | DNAUC [1]: 11463.4 ng·h/mL; clearance [1]: 1.67 mL/min/kg; half-life [1]: 4.58 h; Vd [1]: 0.46 L/kg |
| O=c1nc(NC(C2CCCCC2)C(F)(F)F)[nH]c(=O)n1C1CCOCC1 (centres unmarked) [Example 75] | 6120 | – |
| COc1ccc([C@H](C)Nc2nc(=O)n(C3CCOCC3)c(=O)[nH]2)cc1 [Example 48] | 1130 | – |
| Cc1cccc([C@H](C)Nc2nc(=O)n(C3CCOC(C)C3)c(=O)[nH]2)c1 (some centres unmarked) [Example 100] | 5410 | – |
| Cc1cccc([C@H](C)Nc2nc(=O)n(C3CCN(CC(F)(F)F)CC3)c(=O)[nH]2)c1 [Example 39] | 6700 | – |
| C[C@H](Nc1nc(=O)n(C2CCNC(=O)C2)c(=O)[nH]1)C1CCCCC1 (some centres unmarked) [Example 22] | 13200 | – |
| Cc1cccc([C@H](C)Nc2nc(=O)n(C3CCCOC3)c(=O)[nH]2)c1 (some centres unmarked) [Example 35] | 2590 | – |
| C[C@H](Nc1nc(=O)n(C2CCOCC2)c(=O)[nH]1)c1ccccc1Cl [Example 159] | 470 | – |
| Cc1cccc([C@H](C)Nc2nc(=O)n(CC(F)(F)F)c(=O)[nH]2)c1 [Example 42] | 9100 | – |
| CC(Nc1nc(=O)n(C2CCOCC2)c(=O)[nH]1)C1CCC(F)(F)CC1 (centres unmarked) [Example 118] | 13000 | – |
| C[C@H](Nc1nc(=O)n(C2CCN(C)C(=O)C2)c(=O)[nH]1)C1CCCCC1 (some centres unmarked) [Example 23] | 8050 | – |
| Cc1cccc([C@H](C)Nc2nc(=O)n(C3CCCC3)c(=O)[nH]2)c1 [Example 94] | 1750 | – |
| Cc1cccc(C(C)Nc2nc(=O)n(C3CCN(C(=O)OC(C)(C)C)CC3)c(=O)[nH]2)c1 (centres unmarked) [Example 146] | 5510 | – |
| Cc1cccc([C@H](C)Nc2nc(=O)n([C@H]3CC[C@H](NC(=O)OC(C)(C)C)CC3)c(=O)[nH]2)c1 [Example 97] | 1290 | – |
| C[C@H](Nc1nc(=O)n(C2CCN(C)CC2)c(=O)[nH]1)C1CCCCC1 [Example 59] | 2590 | – |
| Cc1cccc([C@H](C)Nc2nc(=O)n([C@@H](C)C(F)(F)F)c(=O)[nH]2)c1 [Example 40] | 2210 | – |

| Compound | IC50 (bovine cardiac myosin) [nM] | other results |
| --- | --- | --- |
| CC[C@H](Nc1nc(=O)n(C2CCOCC2)c(=O)[nH]1)C1CCCCC1 [Example 116] | 3950 | – |
| COCCN1CCC(n2c(=O)nc(N[C@@H](C)c3cccc(C)c3)[nH]c2=O)CC1 [Example 38] | 1450 | – |
| CC(Nc1nc(=O)n(C2CCOCC2)c(=O)[nH]1)c1ccc(C2CC2)cc1 (centres unmarked) [Example 137] | 4930 | – |
| Cc1ccc([C@H](C)Nc2nc(=O)n(C3CCOCC3)c(=O)[nH]2)cc1F [Example 161] | 1050 | – |
| C[C@H](Nc1nc(=O)n(-c2ccccn2)c(=O)[nH]1)C1CCCCC1 [Example 57] | 7400 | – |
| CO[C@H]1CC[C@@H](n2c(=O)nc(N[C@@H](C)C3CCCCC3)[nH]c2=O)CC1 [Example 84] | 5770 | – |
| CC(Nc1nc(=O)n(C2CCOCC2)c(=O)[nH]1)c1ccc2c(c1)OC(F)(F)O2 (centres unmarked) [Example 148] | 1140 | – |
| CC(Nc1nc(=O)n(C2CCOCC2)c(=O)[nH]1)c1ccc2c(c1)OCO2 (centres unmarked) [Example 128] | 1880 | – |
| CC[C@H](Nc1nc(=O)n(C(C)C)c(=O)[nH]1)C1CCCCC1 [Example 70] | 5280 | – |
| Cc1ccc(F)c([C@H](C)Nc2nc(=O)n([C@H](C3CC3)C(F)(F)F)c(=O)[nH]2)c1 [Example 303] | 560 | – |
| Cc1ccc(C(C)Nc2nc(=O)n(C3CCNCC3)c(=O)[nH]2)cc1 (centres unmarked) [Example 194] | 4470 | – |
| COc1ccccc1[C@H](C)Nc1nc(=O)n(C2CCOCC2)c(=O)[nH]1 [Example 150] | 6630 | – |
| C[C@H](Nc1nc(=O)n(C2CCOCC2)c(=O)[nH]1)c1ccc(Cl)c(F)c1 [Example 166] | 5370 | – |
| C[C@H](Nc1nc(=O)n(C2CCOCC2)c(=O)[nH]1)C1CCCCC1 [Example 2] | 2450 | – |
| O=c1nc(NC2CCc3ccccc32)[nH]c(=O)n1C1CCOCC1 (centres unmarked) [Example 149] | 5500 | – |
| C[C@H](Nc1nc(=O)n(C2CCOCC2)c(=O)[nH]1)c1ccc(C#N)cc1 [Example 169] | 1450 | – |

Second part, led by results:

| IC50 (bovine cardiac myosin) [nM] | Compound | other results |
| --- | --- | --- |
| 1980 | CC(O)c1cccc([C@@H](Nc2nc(=O)n(C3CCOCC3)c(=O)[nH]2)C(F)F)c1 (some centres unmarked) [Example 266] | – |
| 370 | Cc1cc([C@@H](C)Nc2nc(=O)n(C3CCOCC3)c(=O)[nH]2)c(F)cc1F [Example 272] | – |
| 6890 | C[C@H](Nc1nc(=O)n(C2CCOCC2)c(=O)[nH]1)c1cccc(C(F)(F)F)c1 [Example 252] | DNAUC [1]: 3959.8 ng·h/mL; clearance [1]: 3.5 mL/min/kg; half-life [1]: 4.41 h; Vd [1]: 0.94 L/kg |
| 780 | C[C@H](Nc1nc(=O)n(C2CCOCC2)c(=O)[nH]1)c1ccc(S(C)(=O)=O)cc1 [Example 249] | – |
| 1170 | CC(C)n1c(=O)nc(N[C@@H](C)c2ccc(Cl)c(Cl)c2)[nH]c1=O [Example 325] | – |
| 1310 | C[C@H](Nc1nc(=O)n(C2CCOCC2)c(=O)[nH]1)c1cccc(C2CCN(C(=O)OC(C)(C)C)CC2)c1 [Example 211] | – |
| 510 | COC[C@H](Nc1nc(=O)n(C(C)C)c(=O)[nH]1)c1cccc(C)c1 [Example 285] | – |
| 1220 | C[C@@H](Nc1nc(=O)n(C2CCOCC2)c(=O)[nH]1)c1cccc(C2CC2)c1 [Example 306] | – |
| 550 | C[C@H](O)c1cccc([C@H](C)Nc2nc(=O)n(C3CCOCC3)c(=O)[nH]2)c1 [Example 344] | – |
| 1590 | Cc1cc([C@H](C)Nc2nc(=O)n([C@H]3CCOC[C@H]3F)c(=O)[nH]2)ccc1F [Example 297] | – |
| 2430 | Cc1cccc([C@H](Nc2nc(=O)n(C3CCOCC3)c(=O)[nH]2)C(F)(F)F)c1 [Example 280] | – |
| 240 | C[C@H](Nc1nc(=O)n(C2CCOCC2)c(=O)[nH]1)c1cccc([C@@H](C)O)c1 [Example 286] | – |
| 290 | Cc1cccc([C@H](Nc2nc(=O)n(C3CCOCC3)c(=O)[nH]2)C(F)F)c1 [Example 284] | – |
| 4030 | C[C@H](Nc1nc(=O)n(C2CCOCC2)c(=O)[nH]1)c1cccc(C(O)C2CC2)c1 (some centres unmarked) [Example 250] | – |
| 1090 | CO[C@@H]1COCC[C@H]1n1c(=O)nc(N[C@@H](C)c2cc(C)ccc2F)[nH]c1=O [Example 283] | – |
| 4140 | C[C@H](Nc1nc(=O)n(C2CCOCC2)c(=O)[nH]1)c1cccc(-c2cn[nH]c2)c1 [Example 228] | – |
| 4280 | C[C@H](Nc1nc(=O)n([C@H]2CC[C@H](O)CC2)c(=O)[nH]1)C1CCCCC1 [Example 238] | – |

| IC50 (bovine cardiac myosin) [nM] | Compound | other results |
| --- | --- | --- |
| 950 | Cc1cc([C@H](C)Nc2nc(=O)n(C(C)C)c(=O)[nH]2)ccc1F [Example 305] | – |
| 1050 | C[C@@H](Nc1nc(=O)n(C2CCOCC2)c(=O)[nH]1)c1ccc2c(c1)OC(F)(F)O2 [Example 318] | – |
| 850 | C[C@H](Nc1nc(=O)n(C2CCOCC2)c(=O)[nH]1)c1cccc([C@H](O)C(F)(F)F)c1 [Example 291] | – |
| 17700 | C[C@H](Nc1nc(=O)n(C2CCOCC2)c(=O)[nH]1)c1cccc(N2CCN(C)CC2)c1 [Example 212] | – |
| 720 | Cc1cccc([C@@H](Nc2nc(=O)n(C3CCOCC3)c(=O)[nH]2)C(F)(F)F)c1 [Example 279] | – |
| 1780 | C[C@H](Nc1nc(=O)n(C2CCOCC2)c(=O)[nH]1)c1cccc(-n2ccnc2)c1 [Example 200] | – |
| 710 | C[C@H](Nc1nc(=O)n([C@H](C)C(F)(F)F)c(=O)[nH]1)c1ccc(Cl)c(Cl)c1 [Example 323] | – |
| 1950 | C[C@H](Nc1nc(=O)n(C2CCOCC2)c(=O)[nH]1)c1cccc(C2CCNCC2)c1 [Example 209] | – |
| 3380 | Cc1nccn1-c1cccc(C(C)Nc2nc(=O)n(C3CCOCC3)c(=O)[nH]2)c1 (centres unmarked) [Example 219] | – |
| 1390 | C[C@H](Nc1nc(=O)n([C@@H](C)C(F)(F)F)c(=O)[nH]1)c1cccc(C(F)(F)F)c1 [Example 332] | – |
| 5710 | Cc1n[nH]cc1-c1cccc([C@H](C)Nc2nc(=O)n(C3CCOCC3)c(=O)[nH]2)c1 [Example 230] | – |
| 1510 | CC(C)n1c(=O)nc(N[C@@H](C)c2cccc([C@H](C)O)c2)[nH]c1=O [Example 343] | – |
| 820 | C[C@H](Nc1nc(=O)n(C2CCOCC2)c(=O)[nH]1)c1cccc(-c2cnn(C)c2)c1 [Example 229] | – |
| 1000 | CC(C)c1cccc([C@H](C)Nc2nc(=O)n(C3CCOCC3)c(=O)[nH]2)c1 [Example 308] | – |
| 1100 | CC(C)n1c(=O)nc(N[C@H](c2cccc(C(O)C3CC3)c2)C(F)F)[nH]c1=O (some centres unmarked) [Example 265] | – |
| 390 | C[C@H](Nc1nc(=O)n(C2CCOCC2)c(=O)[nH]1)c1cccc(CC(F)(F)F)c1 [Example 274] | – |
| 3660 | CC(Nc1nc(=O)n(C2CCOCC2)c(=O)[nH]1)c1cccc(-n2cccn2)c1 (centres unmarked) [Example 217] | – |
